# Results published in PMC6328587 (Nature Communications, 2019).
# Experiments:
# [1] = target: T1, endogenous p38δ (Homo sapiens, UniProt O15264+P40337); test: Ternary complex pull-down from MDA-MB-231 whole-cell lysate; format: binding
# T1 construct: endogenous in cells; host or cells: MDA-MB-231 whole-cell lysate (p38δ); GST-VBC bait made in E. coli
# Experimental: (§1) Glutathione Sepharose 4B (Glutathione-conjugated beads in a slurry containing 20% ethanol) were washed twice with 1X wash buffer (50 mM HEPES pH 7.5, 150 mM NaCl, 1 mM DTT, 0.01% NP40, 5 mM MgCl2, 10% Glycerol) and then blocked for 1 h at room temperature with 10% bovine serum albumin (BSA) in wash buffer. The beads were then washed again three times with wash buffer and then purified GST-VBC (stable form of VHL complexed with EloB/EloC, described above) was immobilized for 1 h at 4 °C at 3.6 pmole µL^–1 of beads. The beads were then washed three times with wash buffer, resuspended, divided into two equal volumes, and p38α or p38δ protein was added. The bead:p38 mixture was then aliquoted to separate tubes and PROTAC was added at the indicated concentration (PROTACs were intermediately diluted in 10% DMSO and 0.25% CHAPS). This mixture was incubated at 4 °C for 2 h. The beads were washed three times with 10 column volumes of wash buffer and then eluted with SDS loading buffer at 75 °C for 10 min.
# For experiments in which the input substrate is a WCL (Fig. 4b), the sample was prepared as follows. Five 150 mm dishes of confluent MDA-MB-231 cells were washed with 1X PBS, pH 7.4, and then dissociated using enzyme-free PBS-based cell dissociation buffer (ThermoFisher Scientific) for 10 min at 37 °C. […]
# [2] = target: T2, ERK2 (Homo sapiens, UniProt P28482); test: ERK2 degradation, western blot in MDA-MB-231 cells; format: cell-based; conditions: 0.025-2.5 µM
# T2 construct: endogenous in cells; host or cells: MDA-MB-231
# Experimental: (§2) […] once with ice-cold PBS (1 × ), followed by lysis in buffer containing 25 mM Tris [pH 7.5], 0.25% sodium deoxycholate, 1% Triton X-100, supplemented with 1X protease inhibitor cocktail (Roche), and phosphatase inhibitors (10 mM NaF, 1 mM Na3VO4, and 20 mM β-glycerophosphate), unless otherwise noted. Lysates were spun at 14,000 × g for 10 min at 4 °C and supernatant was evaluated for protein content using a Pierce BCA Protein Assay (ThermoFisher Scientific). In all experiments, 25–50 μg of protein was loaded onto 10% SDS-PAGE gels or 4–20% Criterion TGX precast gradient gels (Bio-Rad), transferred to nitrocellulose membranes, and probed with the specified antibodies overnight at 4 °C in 1X TBS-Tween (Tris-buffered saline plus 0.02% Tween 20) containing 5% non-fat milk. Immunoblots were visualized using a Bio-Rad ChemiDoc imaging instrument and subsequently processed and quantified using the accompanying Bio-Rad ImageLab software. See Supplementary Figure 8 for uncropped scans of western blots shown in the main text figures.
# (§3) Supplementary Figure 4 cont.
# (§4) Supplementary Figure 4. Characterization of M APK fam ily degradation selectivity (related to Figures 1-2). (a) p38 M APK fam ily m em bers (α, β, δ, γ) were aligned using the T-Coffee multiple sequence alignm ent server. […] Note: JNK1 and JNK2 are expressed as two alternatively-spliced form s. […]
# [3] = target: T3, p38α:PROTAC:VHL ternary complex (Homo sapiens, UniProt P40337+Q16539); test: In vitro ternary complex pull-down, GST-VBC bait, purified p38α; format: binding; conditions: all concentrations tested
# T3 construct: The plasmid contains an N-terminal His6 tag and encodes a region spanning amino acids 2–360 of the human p38α kinase; made in house; host or cells: E. coli BL21-CodonPlus(DE3)-RIPL (p38α); E. coli BL21(DE3) (GST-VBC)
# Experimental: as §1
# [4] = tested on: JNK2; test: JNK2 degradation, western blot in MDA-MB-231 cells; format: cell-based, human; conditions: 0.025-2.5 µM
# Experimental: as §2, §3, §4
# [5] = target: T4, p38δ (Homo sapiens, UniProt O15264); test: CETSA in MDA-MB-231 cell lysate, p38δ; format: binding; conditions: 100 µM PROTAC, 51-55 °C, vs DMSO
# T4 construct: endogenous in cells; host or cells: MDA-MB-231
# T4 sequence (O15264 1-365): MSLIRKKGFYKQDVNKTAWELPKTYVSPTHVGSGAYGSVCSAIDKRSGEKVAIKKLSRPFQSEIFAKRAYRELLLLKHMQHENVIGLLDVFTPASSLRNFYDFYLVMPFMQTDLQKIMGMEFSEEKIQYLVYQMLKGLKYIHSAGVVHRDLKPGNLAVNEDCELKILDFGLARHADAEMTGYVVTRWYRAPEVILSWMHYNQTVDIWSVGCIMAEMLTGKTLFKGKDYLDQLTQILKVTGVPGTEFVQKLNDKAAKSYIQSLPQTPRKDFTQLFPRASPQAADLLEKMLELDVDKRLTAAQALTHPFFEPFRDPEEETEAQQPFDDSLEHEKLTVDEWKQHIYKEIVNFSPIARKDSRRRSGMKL
# Experimental: CETSA protocol was adapted from[60]. In all, 3 × 10^7 MDA-MB-231 cells (1 × 10^7 cells per condition) were collected and resuspended in ice-cold 1X PBS supplemented with 1X protease inhibitor cocktail (Roche) and lysed by three cycles of liquid nitrogen snap freeze, followed by 50% thaw in a room temperature water bath and an additional 50% thaw at 4 °C. After each freeze–thaw cycle, lysate was vortexed briefly to ensure homogenous thawing. Lysate was then cleared for 20 min by centrifugation (14,000 × g at 4 °C) and the soluble fraction was divided into three equal aliquots. The aliquots were treated with vehicle (2.5% DMSO), 100 µM SJFα, or 100 µM SJFδ and incubated at room temperature for 30 min with gentle rotation. Each aliquot was then divided (50 µL) into eight PCR tubes and individually heated at the indicated temperature for 3 min followed by cooling at room temperature for 3 min. After cooling, samples were spun down for 20 min (14,000 × g at 4 °C) and the supernatant (soluble fraction) was analyzed by SDS-PAGE and immunoblotted for p38δ and alpha-tubulin (negative control).
# T2 sequence (P28482 whole entry): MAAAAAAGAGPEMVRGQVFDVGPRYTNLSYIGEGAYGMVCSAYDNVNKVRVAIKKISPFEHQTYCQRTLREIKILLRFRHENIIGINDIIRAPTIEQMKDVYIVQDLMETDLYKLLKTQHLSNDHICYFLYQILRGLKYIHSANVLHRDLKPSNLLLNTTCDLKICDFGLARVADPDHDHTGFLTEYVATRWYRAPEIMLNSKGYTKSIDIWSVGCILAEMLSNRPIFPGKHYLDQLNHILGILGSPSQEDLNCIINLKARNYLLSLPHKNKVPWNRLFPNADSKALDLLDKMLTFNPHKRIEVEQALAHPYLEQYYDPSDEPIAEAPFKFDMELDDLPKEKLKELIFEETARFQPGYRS
# T3 sequence (Q16539 2-360 limits assumed): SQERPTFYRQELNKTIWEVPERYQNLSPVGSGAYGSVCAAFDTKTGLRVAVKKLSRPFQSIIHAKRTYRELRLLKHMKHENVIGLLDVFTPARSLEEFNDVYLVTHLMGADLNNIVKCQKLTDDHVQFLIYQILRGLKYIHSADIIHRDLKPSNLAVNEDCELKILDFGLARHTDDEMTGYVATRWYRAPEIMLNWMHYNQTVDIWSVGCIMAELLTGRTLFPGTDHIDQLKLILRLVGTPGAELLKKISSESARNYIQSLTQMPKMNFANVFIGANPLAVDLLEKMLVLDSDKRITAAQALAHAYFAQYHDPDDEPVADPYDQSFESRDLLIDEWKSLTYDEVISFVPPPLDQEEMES
# T3 sequence (P40337 whole entry, the tested form may be a part): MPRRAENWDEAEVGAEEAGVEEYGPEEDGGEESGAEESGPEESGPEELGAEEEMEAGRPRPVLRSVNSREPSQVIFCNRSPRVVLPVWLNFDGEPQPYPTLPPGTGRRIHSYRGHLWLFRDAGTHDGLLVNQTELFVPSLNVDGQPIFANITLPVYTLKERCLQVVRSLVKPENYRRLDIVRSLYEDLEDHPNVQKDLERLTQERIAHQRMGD
# T3 sequence (Q15370 whole entry partner, the tested form may be a part): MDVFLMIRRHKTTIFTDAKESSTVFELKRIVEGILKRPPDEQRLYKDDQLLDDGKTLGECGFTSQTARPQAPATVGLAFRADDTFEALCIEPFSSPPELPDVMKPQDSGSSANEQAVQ
# T3 sequence (Q15369 whole entry partner, the tested form may be a part): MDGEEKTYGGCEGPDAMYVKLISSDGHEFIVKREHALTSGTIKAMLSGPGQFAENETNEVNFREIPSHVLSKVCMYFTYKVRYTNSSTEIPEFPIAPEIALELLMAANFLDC
# T1 sequence (P40337 whole entry, one chain of several): as the sequence (P40337 whole entry, the tested form may be a part) above
# T1 sequence (Q15370 whole entry partner, one chain of several): as the sequence (Q15370 whole entry partner, the tested form may be a part) above
# T1 sequence (Q15369 whole entry partner, one chain of several): as the sequence (Q15369 whole entry partner, the tested form may be a part) above
ERK2 degradation [2],enrichment of purified p38α on GST-VBC bait [3],SMILES,enrichment of endogenous p38δ on GST-VBC bait [1],JNK2 degradation [4],thermal shift in the p38δ melting profile [5]
neither PROTAC degrades,substantial enrichment,COc1cc2c(Oc3ccc(NC(=O)C4(C(=O)Nc5ccc(F)cc5)CC4)cc3F)ccnc2cc1OCCCCOCCCCOCC(=O)N[C@H](C(=O)N1C[C@H](O)C[C@H]1C(=O)NCc1ccc(-c2scnc2C)cc1)C(C)(C)C [SJFα],stable ternary complex formation was greatly reduced,neither PROTAC degrades,"small, but statistically significant"
neither PROTAC degrades,no detectable enrichment,COc1cc2c(Oc3ccc(NC(=O)C4(C(=O)Nc5ccc(F)cc5)CC4)cc3F)ccnc2cc1OCCOCCOCCOc1cc(-c2scnc2C)ccc1CNC(=O)[C@@H]1C[C@@H](O)CN1C(=O)[C@H](C(C)C)N1Cc2ccccc2C1=O [SJFδ],strongly enriches for endogenous p38δ,neither PROTAC degrades,more pronounced at each melting temperature
